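Step 1: Grow cells in 96-well plates. Step 2: Expose to compound for 48 hours at 5 concentrations. Step 3: Interpolate endpoints linearly; if unreached, use highest concentration. TGI: concentration producing complete growth inhibition.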
Tests used:
Assay in all cases: NCI-60 cell line screen, 48 h
786-0 renal = test system: 786-0 renal
A498 renal = test system: A498 renal
A549 NSCLC = test system: A549 NSCLC
ACHN renal = test system: ACHN renal
BT-549 breast = test system: BT-549 breast
CCRF-CEM leukemia = test system: CCRF-CEM leukemia
COLO 205 colon = test system: COLO 205 colon
EKVX NSCLC = test system: EKVX NSCLC
HCC-2998 colon = test system: HCC-2998 colon
HCT-116 colon = test system: HCT-116 colon
HCT-15 colon = test system: HCT-15 colon
HL-60(TB) leukemia = test system: HL-60(TB) leukemia
HOP-62 NSCLC = test system: HOP-62 NSCLC
HOP-92 NSCLC = test system: HOP-92 NSCLC
HS 578T breast = test system: HS 578T breast
HT29 colon = test system: HT29 colon
IGROV1 ovarian = test system: IGROV1 ovarian
K-562 leukemia = test system: K-562 leukemia
KM12 colon = test system: KM12 colon
LOX IMVI melanoma = test system: LOX IMVI melanoma
M14 melanoma = test system: M14 melanoma
MALME-3M melanoma = test system: MALME-3M melanoma
MCF7 breast = test system: MCF7 breast
MDA-MB-231 breast = test system: MDA-MB-231 breast
MDA-MB-435 = test system: MDA-MB-435
MDA-N = test system: MDA-N
MOLT-4 leukemia = test system: MOLT-4 leukemia
NCI-H226 lung = test system: NCI-H226 lung
NCI-H23 lung = test system: NCI-H23 lung
NCI-H460 lung = test system: NCI-H460 lung
NCI-H522 lung = test system: NCI-H522 lung
NCI/ADR-RES ovarian = test system: NCI/ADR-RES ovarian
OVCAR-3 ovarian = test system: OVCAR-3 ovarian
OVCAR-4 ovarian = test system: OVCAR-4 ovarian
OVCAR-5 ovarian = test system: OVCAR-5 ovarian
OVCAR-8 ovarian = test system: OVCAR-8 ovarian
PC-3 prostate = test system: PC-3 prostate
RPMI-8226 leukemia = test system: RPMI-8226 leukemia
RXF 393 renal = test system: RXF 393 renal
SF-268 CNS = test system: SF-268 CNS
SF-295 CNS = test system: SF-295 CNS
SF-539 CNS = test system: SF-539 CNS
SK-MEL-2 melanoma = test system: SK-MEL-2 melanoma
SK-MEL-28 melanoma = test system: SK-MEL-28 melanoma
SK-MEL-5 melanoma = test system: SK-MEL-5 melanoma
SK-OV-3 ovarian = test system: SK-OV-3 ovarian
SN12C renal = test system: SN12C renal
SNB-19 CNS = test system: SNB-19 CNS
SNB-75 CNS = test system: SNB-75 CNS
SR leukemia = test system: SR leukemia
SW-620 colon = test system: SW-620 colon
T-47D breast = test system: T-47D breast
TK-10 renal = test system: TK-10 renal
U251 CNS = test system: U251 CNS
UACC-257 melanoma = test system: UACC-257 melanoma
UACC-62 melanoma = test system: UACC-62 melanoma
UO-31 renal = test system: UO-31 renal
CAKI-1 renal = test system: CAKI-1 renal
DU-145 prostate = test system: DU-145 prostate

CN1CCN([C@H]2C[C@H]3[C@@H]4CC=C5C[C@@H](N6CCCC6)CC[C@]5(C)[C@H]4CC[C@]3(C)[C@H]2O)CC1 gave a TGI (786-0 renal) greater than 100 µM, a TGI (A498 renal) greater than 100 µM and a TGI (A549 NSCLC) greater than 100 µM. The TGI (ACHN renal) was greater than 100 µM, the TGI (BT-549 breast) was greater than 100 µM and the TGI (CCRF-CEM leukemia) was greater than 100 µM. The TGI (COLO 205 colon) was greater than 100 µM, the TGI (EKVX NSCLC) was greater than 100 µM and the TGI (HCC-2998 colon) was 97.8 µM. For the same compound, the TGI (HCT-116 colon) was greater than 100 µM, the TGI (HCT-15 colon) was greater than 100 µM and the TGI (HL-60(TB) leukemia) was 47.9 µM. The TGI (HOP-62 NSCLC) was greater than 100 µM, the TGI (HOP-92 NSCLC) was greater than 100 µM and the TGI (HS 578T breast) was greater than 100 µM. For the same compound, the TGI (HT29 colon) was greater than 100 µM, the TGI (IGROV1 ovarian) was greater than 100 µM and the TGI (K-562 leukemia) was 34.2 µM. It also gave a TGI (KM12 colon) greater than 100 µM, a TGI (LOX IMVI melanoma) of 39.1 µM and a TGI (M14 melanoma) of 29.8 µM. It also gave a TGI (MALME-3M melanoma) of 35.8 µM, a TGI (MCF7 breast) greater than 100 µM and a TGI (MDA-MB-231 breast) greater than 100 µM. The TGI (MDA-MB-435) was greater than 100 µM, the TGI (MDA-N) was 55 µM and the TGI (MOLT-4 leukemia) was greater than 100 µM. It also gave a TGI (NCI-H226 lung) greater than 100 µM, a TGI (NCI-H23 lung) greater than 100 µM and a TGI (NCI-H460 lung) greater than 100 µM. For the same compound, the TGI (NCI-H522 lung) was greater than 100 µM, the TGI (NCI/ADR-RES ovarian) was greater than 100 µM and the TGI (OVCAR-3 ovarian) was greater than 100 µM. For the same compound, the TGI (OVCAR-4 ovarian) was greater than 100 µM, the TGI (OVCAR-5 ovarian) was greater than 100 µM and the TGI (OVCAR-8 ovarian) was greater than 100 µM. It also gave a TGI (PC-3 prostate) greater than 100 µM, a TGI (RPMI-8226 leukemia) of 53.6 µM and a TGI (RXF 393 renal) of 42.8 µM. For the same compound, the TGI (SF-268 CNS) was greater than 100 µM, the TGI (SF-295 CNS) was greater than 100 µM and the TGI (SF-539 CNS) was 30.6 µM. The TGI (SK-MEL-2 melanoma) was greater than 100 µM, the TGI (SK-MEL-28 melanoma) was 55.8 µM and the TGI (SK-MEL-5 melanoma) was 39.9 µM. It also gave a TGI (SK-OV-3 ovarian) greater than 100 µM, a TGI (SN12C renal) greater than 100 µM and a TGI (SNB-19 CNS) greater than 100 µM. The TGI (SNB-75 CNS) was greater than 100 µM, the TGI (SR leukemia) was 16.4 µM and the TGI (SW-620 colon) was greater than 100 µM. For the same compound, the TGI (T-47D breast) was greater than 100 µM, the TGI (TK-10 renal) was greater than 100 µM and the TGI (U251 CNS) was greater than 100 µM. For the same compound, the TGI (UACC-257 melanoma) was 48.3 µM, the TGI (UACC-62 melanoma) was greater than 100 µM and the TGI (UO-31 renal) was greater than 100 µM.

For CCN(CC)C(=S)N/N=C(\C)c1cccc(C)n1, the TGI (786-0 renal) was 1.36 µM, the TGI (A498 renal) was 0.572 µM and the TGI (A549 NSCLC) was 11.4 µM. It also gave a TGI (ACHN renal) of 1.92 µM, a TGI (BT-549 breast) of 18.8 µM and a TGI (CAKI-1 renal) of 16.6 µM. The TGI (CCRF-CEM leukemia) was greater than 100 µM, the TGI (COLO 205 colon) was 12.1 µM and the TGI (DU-145 prostate) was 4.96 µM. It also gave a TGI (EKVX NSCLC) of 15.5 µM, a TGI (HCC-2998 colon) of 9.6 µM and a TGI (HCT-116 colon) of 1.34 µM. For the same compound, the TGI (HCT-15 colon) was 18 µM, the TGI (HL-60(TB) leukemia) was 0.626 µM and the TGI (HOP-62 NSCLC) was 12.7 µM. The TGI (HOP-92 NSCLC) was 4.49 µM, the TGI (HS 578T breast) was greater than 81.8 µM and the TGI (HT29 colon) was 1.78 µM. The TGI (IGROV1 ovarian) was 12.7 µM, the TGI (KM12 colon) was 6.53 µM and the TGI (LOX IMVI melanoma) was 2.55 µM. For the same compound, the TGI (M14 melanoma) was 4.63 µM, the TGI (MALME-3M melanoma) was 7.4 µM and the TGI (MDA-MB-231 breast) was 19.6 µM. It also gave a TGI (MDA-MB-435) of 7.76 µM, a TGI (MDA-N) of 13.7 µM and a TGI (MOLT-4 leukemia) greater than 71.5 µM. For the same compound, the TGI (NCI-H226 lung) was 5.7 µM, the TGI (NCI-H460 lung) was 0.95 µM and the TGI (NCI-H522 lung) was 0.454 µM. It also gave a TGI (NCI/ADR-RES ovarian) of 13.5 µM, a TGI (OVCAR-3 ovarian) of 0.102 µM and a TGI (OVCAR-4 ovarian) of 4.24 µM. It also gave a TGI (OVCAR-5 ovarian) of 23.5 µM, a TGI (OVCAR-8 ovarian) of 16.9 µM and a TGI (PC-3 prostate) of 17.5 µM. For the same compound, the TGI (RPMI-8226 leukemia) was 23.4 µM, the TGI (RXF 393 renal) was 14.4 µM and the TGI (SF-268 CNS) was 12.4 µM. The TGI (SF-295 CNS) was 13.4 µM, the TGI (SF-539 CNS) was 1.13 µM and the TGI (SK-MEL-2 melanoma) was 18 µM. For the same compound, the TGI (SK-MEL-28 melanoma) was 6.47 µM, the TGI (SK-MEL-5 melanoma) was 1.46 µM and the TGI (SK-OV-3 ovarian) was 11.3 µM. The TGI (SN12C renal) was 13.4 µM, the TGI (SNB-19 CNS) was 22.2 µM and the TGI (SNB-75 CNS) was 14.1 µM. It also gave a TGI (SR leukemia) greater than 100 µM, a TGI (SW-620 colon) of 17.2 µM and a TGI (T-47D breast) of 14.4 µM. It also gave a TGI (TK-10 renal) of 17 µM, a TGI (U251 CNS) of 12.7 µM and a TGI (UACC-257 melanoma) of 13.3 µM. For the same compound, the TGI (UACC-62 melanoma) was 1.76 µM and the TGI (UO-31 renal) was 5.83 µM.

Source: PubChem BioAssay (NCI)
